Tests used:
Assay in all cases: relative viability (nuclei count vs DMSO), 5 days (fraction); higher = more cells survive
Bicalutamide + OSI-027 = compound: CC(O)(CS(=O)(=O)c1ccc(F)cc1)C(=O)Nc1ccc(C#N)c(C(F)(F)F)c1 [Bicalutamide] + COc1cccc2cc(-c3nc([C@H]4CC[C@H](C(=O)O)CC4)n4ncnc(N)c34)[nH]c12 [OSI-027] (partner 0.5 µM)
Outline: (§1)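 Five library-drug doses in √10 steps were combined with a fixed anchor-drug dose, or a single drug was given alone, by pin tool to lung cancer cell lines in 1536-well plates the day after seeding. Nuclei were stained and counted after 5 days. Relative viability is the nuclei count in treated wells over that in vehicle wells, taken as the median of duplicate plates.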

[1] = compound: C(C(=O)C(=O)O)Br [Bromopyruvate] + Nc1nc2[nH]cc(CCc3ccc(C(=O)N[C@@H](CCC(=O)O)C(=O)O)cc3)c2c(=O)[nH]1 [Pemetrexed] (partner 0.2 µM)
Outline: as §1

Bicalutamide + Olaparib = compound: CC(O)(CS(=O)(=O)c1ccc(F)cc1)C(=O)Nc1ccc(C#N)c(C(F)(F)F)c1 [Bicalutamide] + O=C(c1cc(Cc2n[nH]c(=O)c3ccccc23)ccc1F)N1CCN(C(=O)C2CC2)CC1 [Olaparib] (partner 8 µM)
Outline: as §1

[2] = compound: CC(O)(CS(=O)(=O)c1ccc(F)cc1)C(=O)Nc1ccc(C#N)c(C(F)(F)F)c1 [Bicalutamide] + Nc1ncn([C@H]2C[C@H](O)[C@@H](CO)O2)c(=O)n1 [Decitabine] (partner 2 µM)
Outline: as §1

Cell Line | relative viability (Bicalutamide + OSI-027; first compound 0.08 µM) | relative viability (Bicalutamide + OSI-027; first compound 0.253 µM) | relative viability (Bicalutamide + OSI-027; first compound 0.8 µM) | relative viability (Bicalutamide + OSI-027; first compound 2.53 µM) | relative viability ([1]; first compound 1 µM) | relative viability ([1]; first compound 3.162 µM) | relative viability ([1]; first compound 10 µM) | relative viability ([1]; first compound 31.62 µM) | relative viability ([1]; first compound 100 µM) | relative viability (Bicalutamide + Olaparib; first compound 0.08 µM) | relative viability (Bicalutamide + Olaparib; first compound 0.253 µM) | relative viability (Bicalutamide + Olaparib; first compound 0.8 µM) | relative viability (Bicalutamide + Olaparib; first compound 2.53 µM) | relative viability ([2]; first compound 0.08 µM) | relative viability ([2]; first compound 0.253 µM) | relative viability ([2]; first compound 0.8 µM) | relative viability ([2]; first compound 2.53 µM)
HCC-44 | 0.723 | 0.403 | 0.66 | 0.477 | 0.621 | 0.591 | 0.555 | 0.616 | 0.638 | 1.01 | 1.02 | 1.02 | 1.01 | 0.967 | 0.911 | 0.942 | 0.959
HCC-827 | 0.795 | 0.697 | 0.86 | 0.751 | 0.26 | 0.247 | 0.26 | 0.262 | 0.266 | 0.63 | 0.548 | 0.704 | 0.6 | 0.337 | 0.252 | 0.384 | 0.351
NCI-H1623 | 0.43 | 0.447 | 0.487 | 0.531 |  |  |  |  |  |  |  |  |  |  |  |  | 
NCI-H2405 | 0.651 | 0.568 | 0.624 | 0.632 | 1.14 | 1.06 | 1.24 |  | 0.728 | 0.947 | 0.83 | 0.919 | 0.842 | 0.708 | 0.689 | 0.787 | 0.716
PC-3 [JPC-3] | 0.797 | 0.808 | 0.768 | 0.737 | 1.3 |  | 0.783 |  | 1.11 | 1.22 | 1.09 | 1.16 | 1.24 | 0.791 | 0.88 | 0.797 | 0.873
NCI-H1651 | 0.654 | 0.562 | 0.856 | 0.694 | 0.551 | 0.583 | 0.582 | 0.527 | 0.579 | 0.203 | 0.167 | 0.192 | 0.181 | 0.6 | 0.618 | 0.779 | 0.655
HARA | 0.633 | 0.361 | 0.744 | 0.483 | 0.275 | 0.232 |  | 0.219 | 0.271 | 0.871 |  | 1.22 | 0.878 | 0.632 |  | 0.536 | 0.574
NCI-H1650 | 0.71 | 0.552 | 0.744 | 0.649 | 0.39 | 0.435 | 0.37 | 0.406 | 0.266 | 0.989 | 0.759 | 0.899 | 0.723 | 0.452 | 0.369 | 0.45 | 0.436
NCI-H1395 | 0.781 | 0.538 | 0.76 | 0.454 | 0.978 | 0.917 | 0.884 | 0.847 | 0.928 | 0.449 | 0.483 | 0.466 | 0.429 | 0.754 | 0.672 | 0.787 | 0.806
NCI-H1993 | 0.479 | 0.594 | 0.523 | 0.511 | 0.629 | 0.649 | 0.633 | 0.605 | 0.582 | 1.05 | 0.785 | 1.17 | 1.01 | 0.678 | 0.514 | 0.647 | 0.627
LU99A | 0.282 | 0.258 | 0.345 | 0.233 | 0.178 | 0.21 | 0.169 | 0.202 | 0.165 | 0.268 | 0.225 | 0.259 | 0.248 | 0.96 | 0.896 | 1.02 | 0.719
NCI-H1355 | 0.433 | 0.367 | 0.464 | 0.4 | 1.08 | 1.12 | 1.14 | 1.08 | 1.08 | 0.711 | 0.696 | 0.848 | 0.668 | 0.367 | 0.348 | 0.395 | 0.376
HCC-78 | 0.381 | 0.371 | 0.43 | 0.352 | 0.938 | 0.92 | 0.95 | 0.895 | 0.95 | 0.709 | 0.651 | 0.889 | 0.766 | 0.726 | 0.589 | 0.819 | 0.71
NCI-H1563 | 0.764 | 0.698 | 0.804 | 0.65 | 0.815 | 0.717 | 0.823 | 0.674 | 0.757 |  |  |  |  |  |  |  | 
HCC-15 | 0.71 | 0.612 | 0.908 | 0.571 | 0.241 | 0.231 | 0.227 | 0.229 | 0.234 | 0.77 | 0.685 | 0.769 | 0.657 | 0.63 | 0.595 | 0.74 | 0.584
EKVX | 0.747 | 0.631 | 0.739 | 0.718 | 0.396 | 0.424 | 0.376 | 0.372 | 0.438 | 0.917 | 0.861 | 1 | 0.79 | 0.336 | 0.37 | 0.32 | 0.333
NCI-H2126 | 0.681 | 0.619 | 0.673 | 0.755 | 0.702 | 0.636 | 0.66 | 0.677 | 0.695 | 0.989 | 0.913 | 1.01 | 0.859 | 0.572 | 0.537 | 0.582 | 0.528
LK-2 | 0.195 | 0.189 | 0.194 | 0.207 | 0.346 | 0.23 | 0.312 | 0.237 | 0.261 | 0.629 | 0.524 | 1.12 | 0.621 | 0.345 | 0.238 | 0.329 | 0.305
NCI-H1437 | 0.969 | 0.776 | 0.973 | 0.841 | 0.307 | 0.315 | 0.339 | 0.329 | 0.337 | 0.613 | 0.614 | 0.63 | 0.613 | 0.554 | 0.501 | 0.599 | 0.616
COR-L23 | 0.814 | 0.751 | 0.955 | 0.705 | 0.184 | 0.194 | 0.195 | 0.183 | 0.202 | 0.319 | 0.309 | 0.294 | 0.293 | 0.476 | 0.389 | 0.455 | 0.367
